From ChEMBL document CHEMBL1136403, “Synthesis and biological evaluation of some novel 4'-thio-L-ribonucleosides with modified nucleobase moieties” (Bioorg Med Chem Lett, 2003) come the findings set out here.

Experiment [1] concerns NHDF. The experiment can be described thus: In vitro cytotoxicity against normal human dermal fibroblast (NHDF) cell line. It counts as functional, cell-based.
The subject of experiment [2] is T47D. The experiment can be described thus: In vitro cytotoxicity against T47D breast cancer cell line. It counts as functional, cell-based. To be noted: Homo sapiens.
Experiment [3] relates to NB-4. Briefly: In vitro cytotoxicity against NB4 leukemia cell line. The experiment is classed as functional, cell-based. Conditions: Homo sapiens.
Experiment [4] has as its system HeLa. Briefly: In vitro cytotoxicity against HeLa human cervical carcinoma cell line. The experiment is classed as functional, cell-based.
The test system of experiment [5] is C6. Briefly: In vitro cytotoxicity against C6 rat glioma cell line. It counts as functional, cell-based.
Experiment [6] concerns U-87 MG. The experiment can be described thus: In vitro cytotoxicity against HTB14 human glioma cell line. The experiment is classed as functional, cell-based, U-87MG ATCC.
The test system of experiment [7] is T47D. Briefly: Growth stimulating activity against T47D breast cancer cell line; growth stimulatory activity is observed. It counts as functional, cell-based, Homo sapiens.
Experiment [8] concerns NB-4. The experiment can be described thus: Growth stimulating activity against NB4 leukemia cell line; growth stimulatory activity is observed. It counts as functional, cell-based, Homo sapiens.

Broadly, the IC50 is the concentration at which inhibition is half-maximal. Lower therefore signals greater potency in that assay. With `Cc1cn([C@H]2S[C@@H](CO)[C@H](O)[C@@H]2O)c(=O)[nH]c1=O`, the IC50 was over 100 µM in experiment [1]; over 100 µM in experiment [2]; over 100 µM in experiment [3]; 100 µM in experiment [4]; over 100 µM in experiment [5]; 67.8 µM in experiment [6].
With `Nc1nc(S)c2ncn([C@H]3S[C@@H](CO)[C@H](O)[C@@H]3O)c2n1`, the IC50 is over 100 µM in experiment [1]; over 100 µM in experiment [3]; over 100 µM in experiment [4]; “Growth-stimulatory activity” in experiment [7]; over 100 µM in experiment [5]; 62.1 µM in experiment [6].
With `O=c1[nH]c(=O)n([C@H]2S[C@@H](CO)[C@H](O)[C@@H]2O)cc1F`, the IC50 in experiment [1] is over 100 µM; in experiment [2], over 100 µM; in experiment [3], over 100 µM; in experiment [4], over 100 µM; in experiment [5], over 100 µM; in experiment [6] it was 41.5 µM.
In the case of `Nc1nc(=O)n([C@H]2S[C@@H](CO)[C@H](O)[C@@H]2O)cc1F`, the IC50 was over 100 µM in experiment [1]; 95.9 µM in experiment [4]; “Growth-stimulatory activity” in experiment [8]; “Growth-stimulatory activity” in experiment [7]; over 100 µM in experiment [5]; 83.3 µM in experiment [6].
